According to ChEMBL document CHEMBL1154450, “Synthesis and biological evaluation of diversely substituted indolin-2-ones” (Eur J Med Chem, 2008):
Calls of active or inactive are those of the source. The calls are words filed in the database; no cut-off is given here.

What was measured:
[1] = molecular target: Vascular endothelial growth factor receptor 2 (Homo sapiens, UniProt P35968); assay: Inhibition of KDR
[2] = molecular target: Insulin-like growth factor 1 receptor (Homo sapiens, UniProt P08069); assay: Inhibition of IGF1R
[3] = molecular target: Hepatocyte growth factor receptor (Homo sapiens, UniProt P08581); assay: Inhibition of cMet
Chain of Hepatocyte growth factor receptor (P08581 whole entry): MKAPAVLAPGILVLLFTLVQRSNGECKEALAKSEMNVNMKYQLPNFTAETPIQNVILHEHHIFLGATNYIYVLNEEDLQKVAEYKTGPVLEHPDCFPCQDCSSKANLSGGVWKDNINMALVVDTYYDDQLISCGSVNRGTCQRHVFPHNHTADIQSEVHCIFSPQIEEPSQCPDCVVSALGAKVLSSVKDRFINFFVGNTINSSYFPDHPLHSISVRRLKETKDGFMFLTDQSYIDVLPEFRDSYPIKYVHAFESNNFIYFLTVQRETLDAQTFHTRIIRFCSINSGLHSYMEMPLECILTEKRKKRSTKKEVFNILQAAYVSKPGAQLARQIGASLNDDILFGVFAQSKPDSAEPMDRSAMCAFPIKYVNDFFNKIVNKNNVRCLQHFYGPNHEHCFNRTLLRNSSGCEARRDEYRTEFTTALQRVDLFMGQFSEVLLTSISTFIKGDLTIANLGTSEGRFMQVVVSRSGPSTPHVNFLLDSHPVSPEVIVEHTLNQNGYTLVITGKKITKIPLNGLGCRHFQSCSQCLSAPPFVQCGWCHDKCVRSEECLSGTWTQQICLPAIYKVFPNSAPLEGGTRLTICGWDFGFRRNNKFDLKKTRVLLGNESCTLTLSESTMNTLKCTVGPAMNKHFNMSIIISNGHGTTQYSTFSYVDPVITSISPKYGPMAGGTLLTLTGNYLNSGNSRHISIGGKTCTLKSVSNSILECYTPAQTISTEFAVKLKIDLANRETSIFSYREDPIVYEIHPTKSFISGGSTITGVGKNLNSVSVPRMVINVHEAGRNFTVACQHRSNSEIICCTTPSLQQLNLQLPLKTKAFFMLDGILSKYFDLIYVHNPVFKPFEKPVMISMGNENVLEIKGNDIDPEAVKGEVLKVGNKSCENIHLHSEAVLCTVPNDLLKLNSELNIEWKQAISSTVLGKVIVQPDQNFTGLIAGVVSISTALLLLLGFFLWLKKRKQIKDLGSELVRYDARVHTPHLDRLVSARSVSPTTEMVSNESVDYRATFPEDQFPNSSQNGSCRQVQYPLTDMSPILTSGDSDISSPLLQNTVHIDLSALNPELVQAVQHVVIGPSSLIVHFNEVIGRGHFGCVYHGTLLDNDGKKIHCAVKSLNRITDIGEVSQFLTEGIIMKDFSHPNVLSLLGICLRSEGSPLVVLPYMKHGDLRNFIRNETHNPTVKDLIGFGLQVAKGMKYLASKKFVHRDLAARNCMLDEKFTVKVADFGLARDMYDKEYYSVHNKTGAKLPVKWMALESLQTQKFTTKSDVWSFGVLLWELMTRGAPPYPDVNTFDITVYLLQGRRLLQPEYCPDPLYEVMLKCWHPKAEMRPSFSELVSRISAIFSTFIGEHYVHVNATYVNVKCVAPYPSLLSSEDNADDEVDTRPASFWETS

[4] = molecular target: Proto-oncogene tyrosine-protein kinase receptor Ret (Homo sapiens, UniProt P07949); assay: Inhibition of Ret
[5] = molecular target: Proto-oncogene tyrosine-protein kinase Src (Homo sapiens, UniProt P12931); assay: Inhibition of Src
Chain of Proto-oncogene tyrosine-protein kinase Src (P12931 2-536 limits assumed): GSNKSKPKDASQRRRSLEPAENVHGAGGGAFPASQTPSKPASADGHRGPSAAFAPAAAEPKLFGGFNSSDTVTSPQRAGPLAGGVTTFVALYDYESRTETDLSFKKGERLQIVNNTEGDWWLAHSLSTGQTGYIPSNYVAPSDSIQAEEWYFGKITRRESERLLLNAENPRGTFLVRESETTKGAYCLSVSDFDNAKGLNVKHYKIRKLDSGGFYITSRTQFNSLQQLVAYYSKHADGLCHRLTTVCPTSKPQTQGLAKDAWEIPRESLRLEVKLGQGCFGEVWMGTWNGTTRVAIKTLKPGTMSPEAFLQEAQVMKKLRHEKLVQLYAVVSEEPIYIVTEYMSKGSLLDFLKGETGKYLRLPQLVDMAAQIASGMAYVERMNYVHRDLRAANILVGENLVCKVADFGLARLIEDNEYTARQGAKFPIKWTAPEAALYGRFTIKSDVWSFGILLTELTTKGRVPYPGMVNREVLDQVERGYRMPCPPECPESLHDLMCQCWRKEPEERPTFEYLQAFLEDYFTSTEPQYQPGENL

[6] = molecular target: Tyrosine-protein kinase ABL1 (Homo sapiens, UniProt P00519); assay: Inhibition of c-Abl
Chain of Tyrosine-protein kinase ABL1 (P00519 whole entry): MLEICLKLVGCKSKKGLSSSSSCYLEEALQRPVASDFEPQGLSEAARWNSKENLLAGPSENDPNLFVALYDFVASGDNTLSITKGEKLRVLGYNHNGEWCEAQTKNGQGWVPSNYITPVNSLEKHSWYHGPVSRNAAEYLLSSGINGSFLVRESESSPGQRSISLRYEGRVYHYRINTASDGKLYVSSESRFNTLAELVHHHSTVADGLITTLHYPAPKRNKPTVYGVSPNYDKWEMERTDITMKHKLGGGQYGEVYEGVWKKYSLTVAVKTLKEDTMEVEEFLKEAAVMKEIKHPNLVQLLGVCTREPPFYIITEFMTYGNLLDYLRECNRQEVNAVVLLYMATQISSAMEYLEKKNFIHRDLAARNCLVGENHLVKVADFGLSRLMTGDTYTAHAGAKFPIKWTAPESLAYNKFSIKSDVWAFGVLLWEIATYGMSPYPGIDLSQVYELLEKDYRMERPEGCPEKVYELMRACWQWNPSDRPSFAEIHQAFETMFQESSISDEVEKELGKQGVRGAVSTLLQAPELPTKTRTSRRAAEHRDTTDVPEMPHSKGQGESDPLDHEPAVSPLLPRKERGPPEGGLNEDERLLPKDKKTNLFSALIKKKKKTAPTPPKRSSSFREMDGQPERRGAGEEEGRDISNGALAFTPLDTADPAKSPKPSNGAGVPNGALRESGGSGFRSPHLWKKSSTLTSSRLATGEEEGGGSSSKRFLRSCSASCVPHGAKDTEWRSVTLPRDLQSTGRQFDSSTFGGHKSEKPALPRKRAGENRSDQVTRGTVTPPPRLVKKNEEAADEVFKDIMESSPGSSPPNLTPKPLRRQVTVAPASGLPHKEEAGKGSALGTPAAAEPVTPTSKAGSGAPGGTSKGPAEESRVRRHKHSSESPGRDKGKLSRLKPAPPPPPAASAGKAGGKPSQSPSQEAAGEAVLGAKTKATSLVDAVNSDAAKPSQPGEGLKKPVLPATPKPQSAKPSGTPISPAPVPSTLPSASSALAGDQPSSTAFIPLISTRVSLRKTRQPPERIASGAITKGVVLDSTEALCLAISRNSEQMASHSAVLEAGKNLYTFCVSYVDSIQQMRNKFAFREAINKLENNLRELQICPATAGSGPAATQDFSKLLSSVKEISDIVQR

[7] = Inhibition of PKA
[8] = tested on: Bacillus cereus; assay: Antibacterial activity against Bacillus cereus ATCC 14579 at 300 ug/disk after 24 hrs by paper disk diffusion test; type: functional; details: ATCC 14579, 24 h, read-out: IZ
[9] = tested on: Streptomyces chartreusis; assay: Antibacterial activity against Streptomyces chartreusis NRRL 11407 at 300 ug/disk after 24 hrs by paper disk diffusion test; type: functional; details: NRRL 11407, 24 h, read-out: IZ
[10] = tested on: Escherichia coli; assay: Antibacterial activity against Escherichia coli ATCC 11303 at 300 ug/disk after 24 hrs by paper disk diffusion test; type: functional; details: for zone of inhibition at 300 µg/disc: ATCC 11303, 24 h, read-out: IZ
[11] = tested on: Candida albicans; assay: Antimicrobial activity against Candida albicans IP444 at 300 ug/disk after 24 hrs by paper disk diffusion test; type: functional; details: for zone of inhibition at 300 µg/disc: read-out: IZ
[12] = molecular target: Cyclin-dependent kinase 2 (Homo sapiens, UniProt P24941); assay: Inhibition of CDK2/Cyclin A

Chain of Vascular endothelial growth factor receptor 2 (P35968 whole entry): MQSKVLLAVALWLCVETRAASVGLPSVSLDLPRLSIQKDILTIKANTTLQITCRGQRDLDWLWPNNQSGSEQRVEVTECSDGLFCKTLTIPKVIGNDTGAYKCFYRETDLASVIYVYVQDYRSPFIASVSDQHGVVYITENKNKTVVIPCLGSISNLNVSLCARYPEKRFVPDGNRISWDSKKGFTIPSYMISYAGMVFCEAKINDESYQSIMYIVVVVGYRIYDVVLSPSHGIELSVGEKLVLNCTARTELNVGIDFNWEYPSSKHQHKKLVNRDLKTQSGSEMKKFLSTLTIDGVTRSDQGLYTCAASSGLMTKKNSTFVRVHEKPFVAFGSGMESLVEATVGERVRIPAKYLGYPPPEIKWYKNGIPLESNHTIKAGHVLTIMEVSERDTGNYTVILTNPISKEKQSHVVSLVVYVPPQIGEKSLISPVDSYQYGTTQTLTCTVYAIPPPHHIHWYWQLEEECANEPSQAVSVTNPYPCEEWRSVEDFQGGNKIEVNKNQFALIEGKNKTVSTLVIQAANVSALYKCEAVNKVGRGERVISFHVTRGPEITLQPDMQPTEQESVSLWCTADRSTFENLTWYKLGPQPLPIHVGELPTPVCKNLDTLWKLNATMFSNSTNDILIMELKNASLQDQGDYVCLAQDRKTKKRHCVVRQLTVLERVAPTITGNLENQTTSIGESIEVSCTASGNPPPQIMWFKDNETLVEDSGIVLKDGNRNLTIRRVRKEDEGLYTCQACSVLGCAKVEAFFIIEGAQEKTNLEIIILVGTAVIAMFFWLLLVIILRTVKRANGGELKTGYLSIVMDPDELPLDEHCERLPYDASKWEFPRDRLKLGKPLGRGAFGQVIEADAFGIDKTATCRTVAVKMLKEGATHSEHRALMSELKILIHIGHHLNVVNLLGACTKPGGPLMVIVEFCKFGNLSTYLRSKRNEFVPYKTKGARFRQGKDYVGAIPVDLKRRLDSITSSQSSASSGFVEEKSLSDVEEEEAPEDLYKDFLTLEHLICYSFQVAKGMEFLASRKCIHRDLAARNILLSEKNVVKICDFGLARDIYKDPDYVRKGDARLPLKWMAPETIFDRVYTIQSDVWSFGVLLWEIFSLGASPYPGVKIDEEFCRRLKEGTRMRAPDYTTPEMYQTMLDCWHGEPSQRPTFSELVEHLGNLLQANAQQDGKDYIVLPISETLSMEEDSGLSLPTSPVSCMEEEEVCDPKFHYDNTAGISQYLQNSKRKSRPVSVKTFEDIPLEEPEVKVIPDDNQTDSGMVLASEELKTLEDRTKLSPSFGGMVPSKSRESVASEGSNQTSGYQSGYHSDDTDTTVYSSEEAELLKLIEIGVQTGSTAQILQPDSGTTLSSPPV

Row | Structure (SMILES) | IC50 [1] | IC50 [2] | IC50 [3] | IC50 [4] | IC50 [5] | IC50 [6] | IC50 [7] | IC50 [12] | zone of inhibition at 300 µg/disc [8] | zone of inhibition at 300 µg/disc [9] | zone of inhibition at 300 µg/disc [10] | zone of inhibition at 300 µg/disc [11] | Activity [10] | Activity [11]
1 | N[C@@H](CCCCN/C=C1\C(=O)Nc2ccc(Br)cc21)C(=O)O | > 10 µM | > 10 µM | > 10 µM | > 10 µM | > 10 µM | > 10 µM | > 10 µM |  | 6 mm | 7 mm |  | 6 mm | inactive | 
2 | CC1(C)S[C@@H]2[C@H](NC(=O)[C@H](N)c3ccccc3)C(=O)N2[C@H]1C(=O)O [AMPICILLIN] |  |  |  |  |  |  |  |  | 13 mm | 25 mm | 31 mm |  |  | 
3 | C[C@@H]1[C@H](O)[C@@H](C)/C=C/C=C/C=C/C=C/C=C/C=C/C=C/[C@H](O[C@@H]2O[C@H](C)[C@@H](O)[C@H](N)[C@@H]2O)C[C@@H]2O[C@](O)(C[C@@H](O)C[C@@H](O)[C@H](O)CC[C@@H](O)C[C@@H](O)CC(=O)O[C@H]1C)C[C@H](O)[C@H]2C(=O)O [AMPHOTERICIN B] |  |  |  |  |  |  |  |  |  |  |  | 13 mm |  | 
4 | N[C@@H](CCCN/C=C1\C(=O)Nc2ccc(Br)cc21)C(=O)O | > 10 µM | > 10 µM | > 10 µM | > 10 µM | > 10 µM | > 10 µM | > 10 µM | 6.6 µM | 7 mm | 8 mm |  |  | inactive | inactive

Further lines, with some results ahead:

Row | IC50 [1] | IC50 [2] | IC50 [3] | IC50 [4] | IC50 [5] | IC50 [6] | IC50 [7] | IC50 [12] | Structure (SMILES) | zone of inhibition at 300 µg/disc [8] | zone of inhibition at 300 µg/disc [9] | zone of inhibition at 300 µg/disc [10] | zone of inhibition at 300 µg/disc [11] | Activity [10] | Activity [11]
5 | > 10 µM | > 10 µM | > 10 µM | > 10 µM | > 10 µM | > 10 µM | > 10 µM |  | N[C@@H](CCCN/C=C1\C(=O)Nc2ccccc21)C(=O)O | 7 mm | 10 mm | 6 mm | 6 mm |  | 
6 | > 10 µM | > 10 µM | > 10 µM | > 10 µM | > 10 µM | > 10 µM | > 10 µM |  | N[C@@H](CCCCN/C=C1\C(=O)Nc2ccccc21)C(=O)O | 6 mm | 6 mm |  | 6 mm | inactive | 
